Data on four compounds can be found in ChEMBL document CHEMBL1201862, “PubChem BioAssay data set” (2004).

Some test systems named below: IGROV-1; SK-MEL-5; SNB-19; HCT-116; SK-OV-3; SK-MEL-2; SNB-75; HOP-92; HCC 2998; BT-549; EKVX; OVCAR-8; KM12; SK-MEL-28; UO-31; SF-295; CAKI-1; MDA-N; HOP-62.
Common to all, as to experiment: NCI tumour cell line growth inhibition, 48 h

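Assay format: 96-well plates, 48-hour exposure. At the GI50, growth is halved.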 Calls of active or inactive are those of the source. No stated cut-off is given here; in the data, active = GI50 up to about 1.1 µM and inactive = higher. Where only a bound is given, the exact number is not on record here.

As to `O=C1c2c(Br)sc(Br)c2[C@H]2OC(=S)N[C@@H]12`, the GI50 was 10.1 µM (inactive) in the test on IGROV-1; 11 µM (inactive) in the test on SK-MEL-5; 15.2 µM (inactive) in the test with SNB-19; 2.81 µM (inactive) in the test on HCT-116; 15.7 µM (inactive) in the test on SK-OV-3; 13.6 µM (inactive) in the test on SK-MEL-2. The GI50 with SNB-75 is 16.1 µM (inactive); in the test with HOP-92 it was 11.9 µM (inactive); in the test on HCC 2998, 10.6 µM (inactive); with BT-549, 10 µM (inactive); in the test with EKVX, 4.89 µM (inactive); in the test with OVCAR-8 it was 3.5 µM (inactive). The GI50 with KM12 is 14.4 µM (inactive); in the test on SK-MEL-28, 2.79 µM (inactive); with UO-31, 1.75 µM (inactive); with SF-295, 15.2 µM (inactive); in the test on CAKI-1, 3.25 µM (inactive); with MDA-N, 5.04 µM (inactive). In addition, in the test on HOP-62, the GI50 was 13.5 µM (inactive).

For the compound `CCCNC(=S)N/C=C1/C(=O)C=C(C)OC1=O`, the GI50 with IGROV-1, with SK-MEL-5, in the test with SNB-19, with HCT-116, in the test with SK-OV-3 and with SK-MEL-2 was > 100 µM (inactive) each time. Moreover, the GI50 in the test on SNB-75, in the test on HOP-92, in the test on HCC 2998, in the test on BT-549, with EKVX and in the test with OVCAR-8 was > 100 µM (inactive) in each case. For the same compound, the GI50 in the test with KM12, in the test with SK-MEL-28, with UO-31, with SF-295, in the test on CAKI-1 and in the test with MDA-N was > 100 µM (inactive) in each case. Besides, the GI50 with HOP-62 is > 100 µM (inactive).

As to `Nc1ncnc2c1ncn2CCCCC(=O)O`, the GI50 in the test on IGROV-1, in the test with SK-MEL-5, in the test with SNB-19, in the test with HCT-116, with SK-OV-3 and with SK-MEL-2 was > 100 µM (inactive) throughout. Moreover, the GI50 in the test with SNB-75, in the test with HOP-92, in the test on HCC 2998, with BT-549, with EKVX and with OVCAR-8 was > 100 µM (inactive) throughout. Moreover, the GI50 with KM12, with SK-MEL-28, in the test with UO-31, in the test with SF-295, in the test with CAKI-1 and in the test with MDA-N was > 100 µM (inactive) throughout. The GI50 in the test with HOP-62 was > 100 µM (inactive).

Consider `C[C@]12CC[C@H]3[C@@H](CCC4=CC(=O)CC[C@@H]43)[C@@H]1CC[C@@H]2OC1(O)C(=O)c2ccccc2C1=O`, for which the GI50 in the test on IGROV-1 was 69.7 µM (inactive); in the test with SK-MEL-5, 19.5 µM (inactive); in the test on SNB-19, > 100 µM (inactive); in the test with HCT-116 it was 14.5 µM (inactive); in the test on SK-OV-3, > 100 µM (inactive); in the test on SK-MEL-2, 75.9 µM (inactive). In addition, the GI50 is 56.9 µM (inactive) in the test with SNB-75; > 100 µM (inactive) in the test with HOP-92; > 100 µM (inactive) in the test on HCC 2998; 66.8 µM (inactive) in the test on BT-549; 0.352 µM (active) in the test with EKVX; 45.2 µM (inactive) in the test on OVCAR-8. Further, the GI50 was > 100 µM (inactive) with KM12; > 100 µM (inactive) with SK-MEL-28; 26.2 µM (inactive) with UO-31; > 100 µM (inactive) in the test on SF-295; 80.2 µM (inactive) with CAKI-1; 17.6 µM (inactive) with MDA-N. In addition, the GI50 in the test on HOP-62 was 36.6 µM (inactive).
